Blank lines part the entries; values can stand above or below the molecule they belong to. The source made the active and inactive calls. The calls are words filed in the database; no cut-off is given here.
Tests used:
[1] = target: T1, Uracil nucleotide/cysteinyl leukotriene receptor (Homo sapiens, UniProt Q13304); assay: Agonist activity at recombinant human GPR17 short isoform transfected in CHO cells assessed as mobilization of intracellular Ca2+ after 20 mins by oregon green 488 BAPTA-1/AM dye-based fluorescence assay; type: functional, cell-based
T1 sequence (Q13304 whole entry, canonical isoform): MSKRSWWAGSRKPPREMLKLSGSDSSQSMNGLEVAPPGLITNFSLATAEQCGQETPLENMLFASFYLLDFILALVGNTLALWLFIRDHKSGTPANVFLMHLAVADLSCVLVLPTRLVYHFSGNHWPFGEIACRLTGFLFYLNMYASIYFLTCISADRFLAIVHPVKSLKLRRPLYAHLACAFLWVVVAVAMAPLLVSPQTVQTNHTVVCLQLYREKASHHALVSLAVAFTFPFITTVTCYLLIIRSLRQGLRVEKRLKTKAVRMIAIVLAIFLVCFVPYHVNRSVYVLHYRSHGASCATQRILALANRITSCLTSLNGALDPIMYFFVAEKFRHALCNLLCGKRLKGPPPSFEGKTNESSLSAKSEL

[2] = target: T1, Uracil nucleotide/cysteinyl leukotriene receptor; assay: Agonist activity at recombinant human GPR17 short isoform transfected in CHO cells assessed as mobilization of intracellular Ca2+ at 1 uM after 20 mins by oregon green 488 BAPTA-1/AM dye-based fluorescence assay relative to control; type: functional, cell-based
[3] = Effect on Ca2+ mobilization in GPR17 deficient human 1321N1 cells at 0.3 uM after 20 mins by oregon green 488 BAPTA-1/AM dye-based fluorescence assay; type: functional
[4] = test system: CHO-K1; assay: Effect on Ca2+ mobilization in GPR17 deficient CHOK1 cells at 0.3 uM after 20 mins by oregon green 488 BAPTA-1/AM dye-based fluorescence assay; type: functional, Cricetulus griseus
[5] = target: T1, Uracil nucleotide/cysteinyl leukotriene receptor; assay: Agonist activity at recombinant human GPR17 short isoform transfected in human 1321N1 cells assessed as mobilization of intracellular Ca2+ at 1 uM after 20 mins by oregon green 488 BAPTA-1/AM dye-based fluorescence assay relative to control; type: functional, cell-based
[6] = Effect on Ca2+ mobilization in GPR17 deficient human 1321N1 cells at 1 uM after 20 mins by oregon green 488 BAPTA-1/AM dye-based fluorescence assay; type: functional
[7] = test system: CHO-K1; assay: Effect on Ca2+ mobilization in GPR17 deficient CHOK1 cells at 1 uM after 20 mins by oregon green 488 BAPTA-1/AM dye-based fluorescence assay; type: functional, Cricetulus griseus
[8] = target: T1, Uracil nucleotide/cysteinyl leukotriene receptor; assay: Agonist activity at recombinant human GPR17 short isoform transfected in human 1321N1 cells assessed as mobilization of intracellular Ca2+ at 3 uM after 20 mins by oregon green 488 BAPTA-1/AM dye-based fluorescence assay relative to control; type: functional, cell-based
[9] = Effect on Ca2+ mobilization in GPR17 deficient human 1321N1 cells at 3 uM after 20 mins by oregon green 488 BAPTA-1/AM dye-based fluorescence assay; type: functional
[10] = target: T1, Uracil nucleotide/cysteinyl leukotriene receptor; assay: Agonist activity at recombinant human GPR17 short isoform transfected in CHO cells assessed as mobilization of intracellular Ca2+ at 3 uM after 20 mins by oregon green 488 BAPTA-1/AM dye-based fluorescence assay relative to control; type: functional, cell-based
[11] = test system: CHO-K1; assay: Effect on Ca2+ mobilization in GPR17 deficient CHOK1 cells at 3 uM after 20 mins by oregon green 488 BAPTA-1/AM dye-based fluorescence assay; type: functional, Cricetulus griseus
[12] = target: T1, Uracil nucleotide/cysteinyl leukotriene receptor; assay: Agonist activity at recombinant human GPR17 short isoform transfected in human 1321N1 cells assessed as mobilization of intracellular Ca2+ after 20 mins by oregon green 488 BAPTA-1/AM dye-based fluorescence assay; type: functional, cell-based
[13] = target: T1, Uracil nucleotide/cysteinyl leukotriene receptor; assay: Agonist activity at recombinant human GPR17 short isoform transfected in human 1321N1 cells assessed as mobilization of intracellular Ca2+ at 10 uM after 20 mins by oregon green 488 BAPTA-1/AM dye-based fluorescence assay relative to control; type: functional, cell-based
[14] = target: T1, Uracil nucleotide/cysteinyl leukotriene receptor; assay: Agonist activity at recombinant human GPR17 short isoform transfected in CHO cells assessed as mobilization of intracellular Ca2+ at 0.3 uM after 20 mins by oregon green 488 BAPTA-1/AM dye-based fluorescence assay relative to control; type: functional, cell-based
[15] = target: T1, Uracil nucleotide/cysteinyl leukotriene receptor; assay: Antagonist activity at recombinant human GPR17 short isoform transfected in CHO cells assessed as inhibition of RA-II-150-mediated intracellular Ca2+ mobilization preincubated for 5 to 30 mins followed by RA-II-150 addition measured after 20 mins by oregon green 488 BAPTA-1/AM dye-based fluorescence assay; type: functional, cell-based
[16] = target: T1, Uracil nucleotide/cysteinyl leukotriene receptor; assay: Agonist activity at recombinant human GPR17 short isoform transfected in CHO cells assessed as inhibition of forskolin-stimulated intracellular cAMP accumulation after 30 mins by FRET assay; type: functional, cell-based
[17] = test system: CHO; assay: Inhibition of forskolin-stimulated intracellular cAMP accumulation in CHO cells after 30 mins by FRET assay; type: functional, cell-based; conditions: Cricetulus griseus
[18] = Effect on Ca2+ mobilization in GPR17 deficient human 1321N1 cells at 0.1 uM after 20 mins by oregon green 488 BAPTA-1/AM dye-based fluorescence assay; type: functional
[19] = test system: CHO-K1; assay: Effect on Ca2+ mobilization in GPR17 deficient CHOK1 cells at 0.1 uM after 20 mins by oregon green 488 BAPTA-1/AM dye-based fluorescence assay; type: functional, Cricetulus griseus

- EC50 [1]: 3.16 µM
SMILES: O=C(O)CCc1c(C(=O)O)[nH]c2cc(Br)ccc12

- Activity [2]: 68%
- Activity [5]: 76%
SMILES: Cc1cc(C)c2c(CCC(=O)O)c(C(=O)O)[nH]c2c1
- Activity [6]: 1%
- Activity [7]: 1%

- Activity [8]: 77%
- Activity [10]: 97%
SMILES: O=C(O)CCc1c(C(=O)O)[nH]c2cc(F)cc(F)c12
- Activity [9]: 2%
- Activity [11]: 1%

- Activity [13]: 106%
- Activity [14]: 89%
SMILES: O=C(O)CCc1c(C(=O)O)[nH]c2cc(Br)cc(Br)c12
- Activity [3]: 0%
- Activity [4]: 0%

- EC50 [1]: 4.79 µM
SMILES: O=C(O)CCc1c(C(=O)O)[nH]c2cc(I)cc(I)c12

- Activity [14]: 100%
SMILES: O=C(O)CCc1c(C(=O)O)[nH]c2cc(Cl)cc(Cl)c12
- Activity [18]: 0%
- Activity [19]: 0%

More lines, now with the values behind:

SMILES: O=C(O)CCc1c(C(=O)O)[nH]c2cc(Cl)ccc12
- Activity [2]: 94%
- Activity [3]: 4%
- Activity [4]: 1%
- Activity [5]: 84%

SMILES: O=C(O)CCc1c(C(=O)O)n(CCC(=O)O)c2cc(Cl)cc(Cl)c12
- Activity [6]: 1%
- Activity [7]: 1%
- EC50 [12]: 5.25 µM
- Activity [2]: 85%
- EC50 [1]: 0.186 µM
- Activity [5]: 80%

SMILES: O=C(O)CCc1c(C(=O)O)[nH]c2cc(-c3ccccc3)ccc12
- EC50 [1]: 0.724 µM

SMILES: O=C(O)CCc1c(C(=O)O)[nH]c2cc(I)ccc12
- EC50 [1]: 0.708 µM

SMILES: O=C(Nc1cccc2c(=O)cc(-c3nnn[nH]3)oc12)c1ccc(OCCCCc2ccccc2)cc1
- inhibition [15]: Dose-dependent effect

SMILES: O=C(O)CCc1c(C(=O)O)[nH]c2cc(-c3ccccc3)cc(-c3ccccc3)c12
- EC50 [1]: 3.02 µM

SMILES: NCC(=O)CCC(=O)O
- inhibition [16]: Active
- inhibition [17]: Active
